In brackets after ≈: the same amount, converted by molar mass. One block for each compound: values may come before it.
Experiments:
[1] = Microsomal stability assay, mouse liver microsomes; type: in vitro ADME; details: for Mics (m) comp remaining 60 min: 10 μM; for microsomal CLint at 10 µM: pooled liver microsomes, pH 7.4, read-out: Mics (m) CLint
[2] = biological target: T1, recombinant human CD73 (hCD73) (Homo sapiens, UniProt P21589); experiment: CD73 activity assay on recombinant human CD73; type: biochemical; details: ΔGexp = RT ln Ki
T1 sequence (P21589 27-574): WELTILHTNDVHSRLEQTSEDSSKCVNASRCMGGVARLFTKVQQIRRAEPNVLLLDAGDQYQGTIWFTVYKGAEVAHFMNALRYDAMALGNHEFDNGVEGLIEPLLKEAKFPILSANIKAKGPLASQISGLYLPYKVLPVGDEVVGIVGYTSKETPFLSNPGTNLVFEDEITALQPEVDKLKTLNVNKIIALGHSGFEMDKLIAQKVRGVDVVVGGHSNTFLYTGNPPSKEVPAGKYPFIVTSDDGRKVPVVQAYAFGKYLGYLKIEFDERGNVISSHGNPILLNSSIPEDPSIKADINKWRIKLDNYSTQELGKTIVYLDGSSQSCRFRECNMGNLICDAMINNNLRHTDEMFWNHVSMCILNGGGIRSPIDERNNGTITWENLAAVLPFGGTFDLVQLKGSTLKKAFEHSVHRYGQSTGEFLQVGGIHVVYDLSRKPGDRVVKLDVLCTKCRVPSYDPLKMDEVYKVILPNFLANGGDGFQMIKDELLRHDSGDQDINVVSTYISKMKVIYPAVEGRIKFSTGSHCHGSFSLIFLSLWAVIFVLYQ

CCRF-CEM = experiment: In vitro cytotoxic activity; type: cell-based; details: Homo sapiens
Experimental: (§1) All the compounds were also tested for their in vitro cytotoxic activity on a small panel of four cancer cell lines (CCRF-CEM, HepG2, HeLa S3, HL-60) and nonmalignant human dermal fibroblasts (NHDF).

HL-60 = experiment: In vitro cytotoxic activity; type: cell-based; details: Homo sapiens
Experimental: as §1

HeLa S3 = experiment: In vitro cytotoxic activity; type: cell-based; details: Homo sapiens
Experimental: as §1

HepG2 = experiment: In vitro cytotoxic activity; type: cell-based; details: Homo sapiens
Experimental: as §1

[3] = tested on: nonmalignant human dermal fibroblasts (NHDF); experiment: In vitro cytotoxic activity; type: cell-based
Experimental: as §1

[4] = Plasma protein binding, equilibrium dialysis, human plasma; type: in vitro ADME; details: undiluted plasma
Experimental: (§2) Plasma protein binding of the investigated compounds was determined using equilibrium dialysis in single-use Rapid Equilibrium Dialysis devices with an 8 kDa molecular weight cutoff (Thermo Fisher Scientific), following the manufacturer’s protocol. In brief, 50 μL of undiluted human plasma (Biowest), spiked with the test compound at a final concentration of 100 μM, was added to the sample chamber, while 300 μL of phosphate-buffered saline (PBS) was placed in the buffer chamber. Devices were incubated for 4 h at 37 °C with gentle shaking.
(§3) After dialysis, 7.5 μL aliquots from both the plasma and buffer chambers were transferred directly into wells of a 384-well plate. To equalize the matrices for downstream processing, 7.5 μL of PBS was added to each plasma aliquot, and 7.5 μL of plasma was added to each buffer aliquot. Proteins were precipitated by adding four volumes of ice-cold methanol to each well, followed by thorough mixing and incubation at – 20 °C for 30 min. Plates were then stored overnight at 8 °C. Prior to analysis, the plate was centrifuged at 2,000 × g for 20 min at 8 °C. […] The fraction of unbound compound was calculated using the following equations: %Free=c(bufferchamber)/c(plasmachamber)*100% %Bound=100%−%Free

[5] = Plasma protein binding, mouse plasma; type: in vitro ADME; details: mouse, plasma, mouse plasma protein binding; read-out: PPB (m) (converted)
Experimental: as §2, §3

[6] = Kinetic solubility in PBS; type: physicochemical; details: phosphate-buffered saline, pH 7.4, aqueous buffer, kinetic from dmso stock
Experimental: Test compounds were prepared as 10 mM stock solutions in DMSO and diluted in phosphate-buffered saline (PBS, pH 7.4) to a 100 μM solution, which was then aliquoted in duplicate. The duplicate samples were incubated in Multiscreen PCF Filter Plates (Merck Millipore) with sealed bottom at room temperature on a shaker for 2 h to allow equilibration. Following incubation, the samples were centrifuged into nonsterile, flat-bottom 96-well plates at 2,200 RCF for 12 min. Supernatants were then diluted 1:99 in a solution of 50% acetonitrile containing 0.1% DMSO. The diluted samples were transferred to 384-well Echo plates, which contained prespotted calibration standards prepared by Echo transfer of 10 mM and 1 mM DMSO stock solutions, resulting in calibration points ranging from 0.05 to 4 μM. Samples and standards were subsequently analyzed by Echo-MS.

in vitro [7] = details: mouse, plasma
[8] = Microsomal stability assay, human liver microsomes; type: in vitro ADME; details: for Mics (hu) comp remaining 60 min: 10 μM; for microsomal CLint at 10 µM: pooled liver microsomes, pH 7.4, read-out: Mics (hu) CLint
in vitro [9] = details: human, plasma
[10] = human plasma protein binding, read-out: PPB (hu) (converted)

Compound: Nc1nc(-c2ccco2)c2ccn([C@@H]3O[C@H](COP(=O)(O)CP(=O)(O)O)[C@@H](O)[C@H]3O)c2n1 [11C.1, [(5-{[2-Amino-4-(furan-2-yl)-7H-pyrrolo[2,3-d]pyrimidin-7-yl]-β-D-ribofuranosyl}oxy)phosphonomethyl]phosphonic Acid]
Mics (m) comp remaining 60 min [1]: 103% | microsomal CLint at 10 µM [1]: < 1 µL/min/mg | dG_exp, experimental binding free energy [2]: –13.1 kcal/mol | IC50 (CCRF-CEM): > 10 µM | IC50 (HL-60): > 10 µM | IC50 (HeLa S3): > 10 µM | IC50 (HepG2): > 10 µM | IC50 [3]: > 10 µM | fraction unbound at 4 h, 100 µM [4, 10]: 0.224 | fraction unbound at 4 h, 100 µM [5]: 0.622 | solubility at 2 h [6]: > 100 µM | half-life at 10 µM (in vitro [7]): > 2 h | Mics (hu) comp remaining 60 min [8]: 107% | microsomal CLint at 10 µM [8]: < 1 µL/min/mg | half-life at 10 µM (in vitro [9]): > 2 h

Compound: O=P(O)(O)CP(=O)(O)OC[C@H]1O[C@@H](n2cnc3c(-c4cccc5c4CCCC5)ncnc32)[C@H](O)[C@@H]1O [31A.12]
Mics (m) comp remaining 60 min [1]: 88% | microsomal CLint at 10 µM [1]: 6 µL/min/mg | dG_exp, experimental binding free energy [2]: –11.8 kcal/mol | IC50 (CCRF-CEM): > 10 µM | IC50 (HL-60): > 10 µM | IC50 (HeLa S3): > 10 µM | IC50 (HepG2): > 10 µM | IC50 [3]: > 10 µM | fraction unbound at 4 h, 100 µM [4, 10]: 0.084 | fraction unbound at 4 h, 100 µM [5]: 0.509 | solubility at 2 h [6]: 80 µM (≈ 43.2 µg/mL) | half-life at 10 µM (in vitro [7]): > 2 h | Mics (hu) comp remaining 60 min [8]: 102% | microsomal CLint at 10 µM [8]: < 1 µL/min/mg | half-life at 10 µM (in vitro [9]): > 2 h

Compound: O=P(O)(O)CP(=O)(O)OC[C@H]1O[C@@H](n2ccc3c(-c4ccc5cncnc5c4)ncnc32)[C@H](O)[C@@H]1O [4A.22]
Mics (m) comp remaining 60 min [1]: 101% | microsomal CLint at 10 µM [1]: < 1 µL/min/mg | dG_exp, experimental binding free energy [2]: –12.9 kcal/mol | IC50 (CCRF-CEM): 9.9 µM | IC50 (HL-60): 4.8 µM | IC50 (HeLa S3): > 10 µM | IC50 (HepG2): > 10 µM | IC50 [3]: > 10 µM | fraction unbound at 4 h, 100 µM [4, 10]: 0.113 | fraction unbound at 4 h, 100 µM [5]: 0.948 | solubility at 2 h [6]: 66 µM (≈ 35.5 µg/mL) | half-life at 10 µM (in vitro [7]): > 2 h | Mics (hu) comp remaining 60 min [8]: 92% | microsomal CLint at 10 µM [8]: 4 µL/min/mg | half-life at 10 µM (in vitro [9]): > 2 h

Compound: Cc1nc(-c2cccc3c2CCCC3)c2ccn([C@@H]3O[C@H](COP(=O)(O)CP(=O)(O)O)[C@@H](O)[C@H]3O)c2n1 [18E.12]
Mics (m) comp remaining 60 min [1]: 106% | microsomal CLint at 10 µM [1]: < 1 µL/min/mg | dG_exp, experimental binding free energy [2]: –14.4 kcal/mol | IC50 (CCRF-CEM): > 10 µM | IC50 (HL-60): > 10 µM | IC50 (HeLa S3): > 10 µM | IC50 (HepG2): > 10 µM | IC50 [3]: > 10 µM | fraction unbound at 4 h, 100 µM [4, 10]: 0.022 | fraction unbound at 4 h, 100 µM [5]: 0.323 | solubility at 2 h [6]: 80 µM (≈ 44.3 µg/mL) | half-life at 10 µM (in vitro [7]): > 2 h | Mics (hu) comp remaining 60 min [8]: 108% | microsomal CLint at 10 µM [8]: < 1 µL/min/mg | half-life at 10 µM (in vitro [9]): > 2 h

Further lines, with some results ahead:

Mics (m) comp remaining 60 min [1]: 105% | microsomal CLint at 10 µM [1]: < 1 µL/min/mg | dG_exp, experimental binding free energy [2]: –14.2 kcal/mol | fraction unbound at 4 h, 100 µM [4, 10]: 0.024 | fraction unbound at 4 h, 100 µM [5]: 0.183 | solubility at 2 h [6]: 85 µM (≈ 47 µg/mL) | half-life at 10 µM (in vitro [7]): > 2 h | Mics (hu) comp remaining 60 min [8]: 112% | microsomal CLint at 10 µM [8]: < 1 µL/min/mg | half-life at 10 µM (in vitro [9]): > 2 h
Compound: O=P(O)(O)CP(=O)(O)OC[C@H]1O[C@@H](n2ccc3c(-c4ccc5ccccc5c4)nc(F)nc32)[C@H](O)[C@@H]1O [14D.7]
IC50 (CCRF-CEM): > 10 µM | IC50 (HL-60): > 10 µM | IC50 (HeLa S3): > 10 µM | IC50 (HepG2): > 10 µM | IC50 [3]: > 10 µM

microsomal CLint at 10 µM [1]: 3 µL/min/mg | dG_exp, experimental binding free energy [2]: –12.7 kcal/mol | fraction unbound at 4 h, 100 µM ([4]; Tables 1 and 3, human plasma as printed in footnote, read-out: fup, fraction unbound in human plasma): 0.11 | fraction unbound at 4 h, 100 µM [4, 10]: ≤ 0.01 | fraction unbound at 4 h, 100 µM [5]: 0.112 | solubility at 2 h [6]: 84 µM (≈ 47.4 µg/mL) | half-life at 10 µM (in vitro [7]): > 2 h | Mics (hu) comp remaining 60 min [8]: 106% | microsomal CLint at 10 µM [8]: < 1 µL/min/mg | half-life at 10 µM (in vitro [9]): > 2 h
Compound: CNc1nc(-c2ccc3ccccc3c2)c2ccn([C@@H]3O[C@H](COP(=O)(O)CP(=O)(O)O)[C@@H](O)[C@H]3O)c2n1 [22G.7, [(5-{[2-(N-Methylamino)-4-(naphthalen-2-yl)-7H-pyrrolo[2,3-d]pyrimidin-7-yl]-β-D-ribofuranosyl}oxy)phosphonomethyl]phosphonic Acid]
IC50 (CCRF-CEM): > 10 µM | IC50 (HL-60): 8.1 µM | IC50 (HeLa S3): > 10 µM | IC50 (HepG2): > 10 µM | IC50 [3]: > 10 µM

Mics (m) comp remaining 60 min [1]: 103% | microsomal CLint at 10 µM [1]: < 2 µL/min/mg | dG_exp, experimental binding free energy [2]: –15.4 kcal/mol | fraction unbound at 4 h, 100 µM [4, 10]: ≤ 0.01 | fraction unbound at 4 h, 100 µM [5]: 0.088 | solubility at 2 h [6]: 84 µM (≈ 50.4 µg/mL) | half-life at 10 µM (in vitro [7]): > 2 h | Mics (hu) comp remaining 60 min [8]: 106% | microsomal CLint at 10 µM [8]: < 2 µL/min/mg | half-life at 10 µM (in vitro [9]): > 2 h
Compound: COc1ccc2cc(-c3nc(Cl)nc4c3ccn4[C@@H]3O[C@H](COP(=O)(O)CP(=O)(O)O)[C@@H](O)[C@H]3O)ccc2c1 [7B.35]
IC50 (CCRF-CEM): > 10 µM | IC50 (HL-60): > 10 µM | IC50 (HeLa S3): > 10 µM | IC50 (HepG2): > 10 µM | IC50 [3]: > 10 µM

Mics (m) comp remaining 60 min [1]: 134% | microsomal CLint at 10 µM [1]: < 2 µL/min/mg | dG_exp, experimental binding free energy [2]: –14.1 kcal/mol | fraction unbound at 4 h, 100 µM [4, 10]: ≤ 0.01 | fraction unbound at 4 h, 100 µM [5]: ≤ 0.01 | solubility at 2 h [6]: > 100 µM | half-life at 10 µM (in vitro [7]): > 2 h | Mics (hu) comp remaining 60 min [8]: 147% | microsomal CLint at 10 µM [8]: < 2 µL/min/mg | half-life at 10 µM (in vitro [9]): > 2 h
Compound: O=P(O)(O)CP(=O)(O)OC[C@H]1O[C@@H](n2ccc3c(-c4ccc5cc(OCc6ccccc6)ccc5c4)nc(Cl)nc32)[C@H](O)[C@@H]1O [7B.31]
IC50 (CCRF-CEM): > 10 µM | IC50 (HL-60): > 10 µM | IC50 (HeLa S3): > 10 µM | IC50 (HepG2): > 10 µM | IC50 [3]: > 10 µM
